Test results taken from patent US11548888B2, “KRas G12C inhibitors” (Mirati Therapeutics, Inc., priority 2019, dated 2023).

Molecular target: T1, KRas G12C (Homo sapiens, UniProt P01116, G12C)
T1 construct: NCI-H358 cells (ATCC CRL-5807) express KRas G12C
Test: Inhibition of KRas G12C-dependent cell growth: Phospho-ERK in NCI-H358 cells
Assay type: cell-based
Conditions: NCI-H358 cells expressing KRas G12C; Phospho-ERK (Thr202/Tyr204) normalized to GAPDH; 3 hours compound; 4 parameter fit
Method in brief: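 NCI-H358 cells (KRas G12C) exposed to compounds for 3 h, 0.5% DMSO final. Fixed cells immunostained for pERK(Thr202/Tyr204) and GAPDH with infrared secondary antibodies. pERK normalized to GAPDH, expressed as percent of DMSO control; IC50 from 4-parameter dose-response fit.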

T1 sequence (P01116 1-188 isoform P01116-2 G12C): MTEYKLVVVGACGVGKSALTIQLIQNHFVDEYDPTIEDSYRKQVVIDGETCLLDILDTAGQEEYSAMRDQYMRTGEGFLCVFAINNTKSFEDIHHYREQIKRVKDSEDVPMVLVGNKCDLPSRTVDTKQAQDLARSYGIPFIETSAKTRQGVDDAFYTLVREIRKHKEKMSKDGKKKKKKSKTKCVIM

Structure (SMILES) | IC50 [nM]
C=CC(=O)N1CCN(c2ncnc3c(F)c(-c4ccccc4C(C)C)ncc23)CC1 [Example 222] | 10000
C=CC(=O)N1CCN(c2ncnc3c(F)c(-c4cccc5ccccc45)ncc23)CC1 [Example 223] | 10000
C=CC(=O)N1CCN(c2ncnc3c(F)c(-c4ccccc4C4CC4)ncc23)CC1 [Example 224] | 10000
C=CC(=O)N1CCN(c2ncnc3c(F)c(-c4c(O)ccc5ccccc45)ncc23)CC1 [Example 225] | 4930
C=CC(=O)N1CC[C@@H]2[C@H]1CN2c1nc(OCC23CCCN2CCC3)nc2c(F)c(-c3cccc4ccc(F)c(Cl)c34)ncc12 [Example 227] | 5
C=CC(=O)N1C[C@@H]2[C@H]1CCN2c1nc(OC[C@@H]2CCCN2C)nc2c(F)c(-c3cccc4ccc(F)c(Cl)c34)ncc12 [Example 228] | 230
C=C(F)C(=O)N1CCN(c2nc(OC[C@@]34CCCN3C[C@H](F)C4)nc3c(F)c(-c4cccc5ccc(F)c(Cl)c45)ncc23)C[C@@H]1CC#N [Example 229] | 1
C=C(F)C(=O)N1CCN(c2nc(OCCNC(=O)C(C)C)nc3c(F)c(-c4cccc5ccc(F)c(Cl)c45)ncc23)C[C@@H]1CC#N [Example 230] | 1850
C=CC(=O)N1C[C@@H]2[C@H]1CCN2c1nc(C)nc2c(F)c(-c3cccc4ccc(F)c(Cl)c34)ncc12 [Example 231] | 4280
C=CC(=O)N1C[C@H]2[C@@H]1CCN2c1ncnc2c(F)c(-c3cccc4ccc(F)c(Cl)c34)ncc12 [Example 232] | 10000
C=CC(=O)N1CCCC12CCN(c1ncnc3c(F)c(-c4cccc5ccc(F)c(Cl)c45)ncc13)C2 (stereo not drawn) [Example 233] | 10000
C=CC(=O)N1CCN(c2ncnc3c(F)c(-c4cccc5ccc(F)c(Cl)c45)ncc23)CC12CC2 [Example 234] | 10000
C=CC(=O)N1CCC12CCN(c1ncnc3c(F)c(-c4cccc5ccc(F)c(Cl)c45)ncc13)C2 (stereo not drawn) [Example 235] | 10000
C=CC(=O)N1CCCC12CN(c1ncnc3c(F)c(-c4cccc5ccc(F)c(Cl)c45)ncc13)C2 [Example 236] | 10000
C=CC(=O)N1CCN(c2nc(C(F)F)nc3c(F)c(-c4cccc5ccc(F)c(Cl)c45)ncc23)C[C@@H]1CC#N [Example 237] | 230
C=CC(=O)N1CC[C@@H]2[C@H]1CN2c1nc(C)nc2c(F)c(-c3cccc4ccc(F)c(Cl)c34)ncc12 [Example 238] | 379
C=CC(=O)N1CC[C@@H]2[C@H]1CN2c1nc(OC[C@@H]2CCCN2C)nc2c(F)c(-c3cccc4ccc(F)c(Cl)c34)ncc12 [Example 239] | 5
C=C(F)C(=O)N1CCN(c2nc(O[C@@H]3CO[C@H]4[C@@H]3OC[C@H]4O)nc3c(F)c(-c4cccc5ccc(F)c(Cl)c45)ncc23)C[C@@H]1CC#N [Example 240] | 10000
C=CC(=O)N1CCN(c2ncnc3c(F)c(-c4cccc(Cl)c4C4CC4)ncc23)C[C@@H]1CC#N [Example 241] | 111

Structure (SMILES) | IC50 [nM]
C=CC(=O)N1CCN(c2ncnc3c(F)c(-c4c(Cl)c(C)cc5[nH]ncc45)ncc23)C[C@@H]1CC#N [Example 242] | 187
C=CC(=O)N1CCN(c2ncnc3c(F)c(-c4c(N)c(Cl)cc(Cl)c4F)ncc23)C[C@@H]1CC#N [Example 243] | 1200
C=C(F)C(=O)N1CCN(c2nc(OC[C@@H]3CC4CCN3C4)nc3c(F)c(-c4cccc5ccc(F)c(Cl)c45)ncc23)C[C@@H]1CC#N (stereo partly drawn) [Example 244] | 88
C#Cc1cccc2cccc(-c3ncc4c(N5CC[C@@H]6[C@H]5CN6C(=O)C=C)ncnc4c3F)c12 [Example 245, 1-((1R,5R)-2-(7-(8-ethynylnaphthalen-1-yl)-8-fluoropyrido[4,3-d]pyrimidin-4-yl)-2,6-diazabicyclo[3.2.0]heptan-6-yl)prop-2-en-1-one] | 4040
C=CC(=O)N1CCC12CN(c1ncnc3c(F)c(-c4cccc5ccc(F)c(Cl)c45)ncc13)C2 [Example 246, 1-(6-(7-(8-chloro-7-fluoronaphthalen-1-yl)-8-fluoropyrido[4,3-d]pyrimidin-4-yl)-1,6-diazaspiro[3.3]heptan-1-yl)prop-2-en-1-one] | 6470
C#Cc1cccc2cccc(-c3ncc4c(N5C[C@@H]6[C@H]5CCN6C(=O)C=C)ncnc4c3F)c12 [Example 247, 1-((1R,5R)-6-(7-(8-ethynylnaphthalen-1-yl)-8-fluoropyrido[4,3-d]pyrimidin-4-yl)-2,6-diazabicyclo[3.2.0]heptan-2-yl)prop-2-en-1-one] | 105
C=CC(=O)N1CCN(c2ncnc3c(F)c(-c4cc(F)cc5ccccc45)ncc23)C[C@@H]1CC#N [Example 249] | 1250
C=CC(=O)N1CCN(c2ncnc3c(F)c(-c4c(C)c(Cl)cc5[nH]ncc45)ncc23)C[C@@H]1CC#N [Example 250] | 91
C=CC(=O)N1CC[C@@H]2[C@H]1CN2c1ncnc2c(F)c(-c3cncc4cccc(Cl)c34)ncc12 [Example 251] | 799
C=CC(=O)N1CC[C@@H]2[C@H]1CN2c1nc(OC[C@@H]2[C@@H]3C[C@@H]3CN2C)nc2c(F)c(-c3cccc4ccc(F)c(Cl)c34)ncc12 [Example 252] | 29
C=CC(=O)N1CC[C@@H]2[C@H]1CN2c1nc(OC[C@@H]2[C@H]3C[C@H]3CN2C)nc2c(F)c(-c3cccc4ccc(F)c(Cl)c34)ncc12 [Example 253] | 35
C=CC(=O)N1CC[C@@H]2[C@H]1CN2c1ncnc2cc(-c3cccc4ccc(F)c(Cl)c34)ncc12 [Example 254] | 2160
C=CC(=O)N1CCN(c2ncnc3c(F)c(-c4cc(Cl)cc5ccccc45)ncc23)CC1 [Example 255] | 10000
C=CC(=O)N1CCN(c2ncnc3c(F)c(-c4cc(C#N)cc5ccccc45)ncc23)CC1 [Example 256] | 10000
C=CC(=O)N1CCN(c2ncnc3c(F)c(-c4cccc5cc(Cl)ccc45)ncc23)CC1 [Example 257] | 10000
C=CC(=O)N1CCN(c2ncnc3c(F)c(-c4cccc5cc(F)ccc45)ncc23)CC1 [Example 258] | 10000
COC/C=C/C(=O)N1CC[C@@H]2[C@H]1CN2c1ncnc2c(F)c(-c3cccc4ccc(F)c(Cl)c34)ncc12 [Example 259] | 9000
C/C=C/C(=O)N1CC[C@@H]2[C@H]1CN2c1ncnc2c(F)c(-c3cccc4ccc(F)c(Cl)c34)ncc12 [Example 260] | 10000
O=C(/C=C/C(F)F)N1CC[C@@H]2[C@H]1CN2c1ncnc2c(F)c(-c3cccc4ccc(F)c(Cl)c34)ncc12 [Example 261] | 486

Structure (SMILES) | IC50 [nM]
C=CC(=O)N1CC[C@@H]2[C@H]1CN2c1nc(OC[C@@H]2CC(F)(F)CN2C)nc2c(F)c(-c3cccc4ccc(F)c(Cl)c34)ncc12 [Example 262] | 114
O=C(/C=C/C(F)(F)F)N1CC[C@@H]2[C@H]1CN2c1ncnc2c(F)c(-c3cccc4ccc(F)c(Cl)c34)ncc12 [Example 263] | 1140
C=CC(=O)N1CC[C@@H]2[C@H]1CN2c1nc(OC[C@@H]2C[C@@H](F)CN2C)nc2c(F)c(-c3cccc4ccc(F)c(Cl)c34)ncc12 [Example 264] | 20
C=CC(=O)N1CC[C@@H]2[C@H]1CN2c1nc(OC2COC2)nc2c(F)c(-c3cccc4ccc(F)c(Cl)c34)ncc12 [Example 265] | 1490
C=CC(=O)N1CC[C@@H]2[C@H]1CN2c1ncnc2c(F)c(-c3cccc4cc(OC)ccc34)ncc12 [Example 266] | 10000
C=CC(=O)N1CC[C@@H]2[C@H]1CN2c1nc(OC)nc2c(F)c(-c3cccc4ccc(F)c(Cl)c34)ncc12 [Example 267] | 330
C=CC(=O)N1CC[C@@H]2[C@H]1CN2c1nc(OCC)nc2c(F)c(-c3cccc4ccc(F)c(Cl)c34)ncc12 [Example 268] | 1130
C=CC(=O)N1CC[C@@H]2[C@H]1CN2c1nc(N(C)C)nc2c(F)c(-c3cccc4ccc(F)c(Cl)c34)ncc12 [Example 269] | 4490
C=CC(=O)N1CC[C@@H]2[C@H]1CN2c1nc(OC(C)C)nc2c(F)c(-c3cccc4ccc(F)c(Cl)c34)ncc12 [Example 270] | 3780
C=CC(=O)N1CC[C@@H]2[C@H]1CN2c1nc(NC)nc2c(F)c(-c3cccc4ccc(F)c(Cl)c34)ncc12 [Example 271] | 1070
C=CC(=O)N1CC[C@@H]2[C@H]1CN2c1nc(OC2CC2)nc2c(F)c(-c3cccc4ccc(F)c(Cl)c34)ncc12 [Example 272] | 1470
C=CC(=O)N1CC[C@@H]2[C@H]1CN2c1nc(N2CC(N(C)C)C2)nc2c(F)c(-c3cccc4ccc(F)c(Cl)c34)ncc12 [Example 273] | 16
C=CC(=O)N1CC[C@@H]2[C@H]1CN2c1nc(N(C)CC)nc2c(F)c(-c3cccc4ccc(F)c(Cl)c34)ncc12 [Example 274] | 10000
C=CC(=O)N1CC[C@@H]2[C@H]1CN2c1nc(N(CC)CC)nc2c(F)c(-c3cccc4ccc(F)c(Cl)c34)ncc12 [Example 275] | 10000
C=CC(=O)N1CC[C@@H]2[C@H]1CN2c1ncnc2c(F)c(-c3cccc4sccc34)ncc12 [Example 276] | 6610
C=CC(=O)N1CC[C@@H]2[C@H]1CN2c1ncnc2c(F)c(-c3cccc(Cl)c3C3CC3)ncc12 [Example 277] | 553
C=CC(=O)N1CC[C@@H]2[C@H]1CN2c1ncnc2c(F)c(-c3cccc4ccsc34)ncc12 [Example 278] | 10000
C=CC(=O)N1CC[C@@H]2[C@H]1[C@@H](C)N2c1ncnc2c(F)c(-c3cccc4ccc(F)c(Cl)c34)ncc12 [Example 279] | 408
C=CC(=O)N1CC[C@@H]2[C@H]1[C@H](C)N2c1ncnc2c(F)c(-c3cccc4ccc(F)c(Cl)c34)ncc12 [Example 280] | 90
